Measured values: patent US11085016B1, “Method for screening bacteria capable of degrading ethylene oxide” (priority 2020, dated 2021)

How the values were obtained:
[1] = Ethylene oxide degradation acclimatization: growth on 800 mg/L ethylene oxide plates with decreasing carbon source; design: key: + normal growth; ± low growth
Experimental: (§1) Ethylene oxide degradation acclimatization medium plates were made as follows: Peptone 10 g, glucose (20 g, 12 g, 4 g, and 0 g, respectively), agar 15 g, pH adjusted to 5.4-5.8, and filled with distilled water to 1000 mL which was distributed into 250 mL. Sterilization was then performed at 121° C. for 20 min. The medium was heated to melt before use. When the temperature of the medium was cooled down to 50-56° C., 200 mg of ethylene oxide was added by using a sealed injection needle to obtain four ethylene oxide degradation acclimatization medium plates containing different concentrations of carbon source (50%, 30%, 10%, 0%, respectively), named as ethylene oxide degradation acclimatization medium plate A, ethylene oxide degradation acclimatization medium plate B, ethylene oxide degradation acclimatization medium plate C, and ethylene oxide degradation acclimatization medium plate D, respectively.
(§2) The ethylene oxide-tolerant bacteria were streak-inoculated on Ethylene Oxide Degradation Acclimatization medium A, and cultured at a constant temperature of 37° C. for 48 h; a single colony having a largest radius was picked for further inoculation on Ethylene Oxide Degradation Acclimatization medium B, and cultured at a constant temperature of 37° C. for 48 h; a single colony having a largest radius was picked for further inoculation on Ethylene Oxide Degradation Acclimatization medium C, and cultured at a constant temperature of 37° C. for 48 h; a single colony having a largest radius was picked for further inoculation on Ethylene Oxide Degradation Acclimatization medium D, and cultured at a constant temperature of 37° C. for 48 h; a single colony having a largest radius was picked and preserved on an agar medium bevel containing corresponding nutritional components in Ethylene Oxide Degradation Acclimatization medium D, to obtain ethylene oxide-degrading strains. Growth situation of the strains on the ethylene oxide degradation acclimatization medium plates A, B, C, and D are as shown in Table 1.

[2] = Ethylene oxide tolerance acclimatization: growth on medium plates with increasing ethylene oxide; design: key: + normal growth; ± low growth; details: Example 3, carbon source 100%
Experimental: as §1, with “tolerance” for “degradation”, “40” for “(20”, “g,” for “g, 12 g, 4 g, and 0 g, respectively),”, “C., 25 mg, 50 mg, 125 mg, and” for “C.,”, “added, respectively,” for “added”, “ethylene oxide (100 mg/L, 200 mg/L, 500 mg/L, and 800 mg/L,” for “carbon source (50%, 30%, 10%, 0%,”
as §2, with “The purified bacteria having a potential for degrading” for “The”, “oxide” for “oxide-tolerant bacteria”, “ethylene oxide tolerance acclimatization” for “Ethylene Oxide Degradation Acclimatization”, “h,” for “h; a single colony having a largest radius was picked and preserved on an agar medium bevel containing corresponding nutritional components in Ethylene Oxide Degradation Acclimatization medium D,”, “oxide-tolerant bacteria.” for “oxide-degrading strains.”, “tolerance” for “degradation”

[3] = Comparative experiment for the degradation of ethylene oxide (gas chromatography); details: Example 3
Experimental: The bacteria having a potential for degrading ethylene oxide which have not been subjected to the acclimatization steps and the strains capable of tolerating and degrading ethylene oxide obtained after the acclimatization steps were inoculated into activation medium, respectively, for activation, and cultured to a bacteria concentration of 10^10-10^12 cfu/mL in the culture.
The activation medium was made as follows: Peptone 10 g, filled with distilled water to 1000 mL which was distributed into 400 mL. Then, sterilization was performed at 121° C. for 20 min. Thereafter, the temperature of the medium was cooled down to RT for storage. 160 mg and 320 mg of ethylene oxide was added, respectively, by using a sealed syringe to obtain two activation media containing different concentrations (400 mg/L and 800 mg/L, respectively) of ethylene oxide for the test of degrading capability of the ethylene oxide-degrading strains.
Comparative experiment for the degradation of ethylene oxide was performed with the following test groups and control group.
Test group 1: 5 mL of an activation culture of the bacteria capable of tolerating and degrading ethylene oxide was inoculated into 400 mL of activation media containing 400 mg/L (1A) and 800 mg/L (1B), respectively, of ethylene oxide. The amount of live bacteria in the medium was 10^8-10^10 cfu/mL.
Test group 2: 5 mL of an activation culture of the bacteria having a potential for degrading ethylene oxide which have not been subjected to the acclimatization steps was inoculated into 400 mL of activation media containing 400 mg/L (2A) and 800 mg/L (2B), respectively, of ethylene oxide. The amount of live bacteria in the medium was 10^8-10^10 cfu/mL.
Control group: 400 mL of activation media containing 400 mg/L (control group A) and 800 mg/L (control group B), respectively, of ethylene oxide with no bacteria strain inoculated.
The test groups and control groups are placed together in an incubated for culturing at 37° C. for 48 h. […] The result of degradation was detected by gas chromatography. […]
the subject samples to be analyzed were prepared by diluting samples from the treatment and control groups 5 times with deionized water;
after the GC instrument is stabilized and under the same conditions, 2 μL each of the ethylene oxide standards and the diluted samples to be analyzed were injected into the GC instrument, wherein each sample was measured twice in parallel;
qualitive determination was conducted according to the retention time and quantitative calculation on each peak area was performed to take the average value; […]
the degradation rate of ethylene oxide for each sample was calculated according to the following formula: Degradation Rate (%)=(Control Group Concentration−Treatment Group Concentration)/Control Group Concentration×100. […]

Lactobacillus
Growth, EO (800 mg/L)/ C (%) 0 % ([1]; Example 3, carbon source 0%): +
Growth, EO (800 mg/L)/ C (%) 10 % ([1]; Example 3, carbon source 10%): +
Growth, EO (800 mg/L)/ C (%) 30 % ([1]; Example 3, carbon source 30%): +
Growth, EO (800 mg/L)/ C (%) 50 % ([1]; Example 3, carbon source 50%): +
Growth, C (100%)/EO(mg/L) 100 ([2]; EO 100 mg/L): +
Growth, C (100%)/EO(mg/L) 200 ([2]; EO 200 mg/L): +
Growth, C (100%)/EO(mg/L) 500 ([2]; EO 500 mg/L): +
Growth, C (100%)/EO(mg/L) 800 ([2]; EO 800 mg/L): +
EO (400 mg/L)/C (0%) Degradation rate (%) After Acc. ([3]; EO 400 mg/L, strain after acclimatization): 75.96%
EO (400 mg/L)/C (0%) Degradation rate (%) Before Acc. ([3]; EO 400 mg/L, strain before acclimatization): 17.32%
EO (800 mg/L)/C (0%) Degradation rate (%) After Acc. ([3]; EO 800 mg/L, strain after acclimatization): 64.83%
EO (800 mg/L)/C (0%) Degradation rate (%) Before Acc. ([3]; EO 800 mg/L, strain before acclimatization): 6.89%
